Assay results from the supplement of paper PMC10331698.
± gives the standard deviation of the averaged measurements.

Assays:
Test in all cases: level (log10 ratio to DMSO vehicle control); higher = higher biomarker level / cell amount than vehicle control
Conditions in all cases: in DMSO
[1] = compound: FC(F)(F)C(F)(F)C(F)(F)C(F)(F)C(F)(F)C(F)(F)C(F)(F)CCI [1-Iodo-1H,1H,2H,2H-perfluorononane]
Method: (§1)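 BioMAP Diversity Plus panel of 12 human primary cell co-culture systems (3C, 4H, LPS, SAg, BT, BF4T, BE3C, CASM3C, HDF3CGF, KF3CT, MyoF, Mphg). Compounds were added 1 h before stimulation and left for 24 h (MyoF 48 h; BT 72 h for soluble read-outs or 6 d for IgG). Biomarkers were read by ELISA, cytotoxicity by SRB, PBMC viability and proliferation by Alamar Blue. Each well value was divided by the mean of 8 DMSO control wells on the same plate and log10 transformed; duplicate blinded samples were tested at 4 concentrations.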

1-(Perfluorohexyl)octane = compound: CCCCCCCCC(F)(F)C(F)(F)C(F)(F)C(F)(F)C(F)(F)C(F)(F)F [1-(Perfluorohexyl)octane]
Method: as §1

[2] = compound: O=C(O)CCC(F)(F)C(F)(F)C(F)(F)F [3:3 Fluorotelomer carboxylic acid]
Method: as §1

| Test System | level (log10) ([1]; 6700 nM) | level (log10) ([1]; 20000 nM) | level (log10) (1-(Perfluorohexyl)octane; 6700 nM) | level (log10) (1-(Perfluorohexyl)octane; 20000 nM) | level (log10) ([2]; 6700 nM) | level (log10) ([2]; 20000 nM) | level (log10) ([2]; 60000 nM) |
| --- | --- | --- | --- | --- | --- | --- | --- |
| BE3C:CD87/uPAR | 0.0115 ± 0.018 | 0.016 ± 0.0014 | 0.0085 ± 0.00071 | 0.017 ± 0.0099 | 0.0045 ± 0.016 | -0.0035 ± 0.011 | 0.0115 ± 0.019 |
| BF4T:MMP-3 | 0.0185 ± 0.013 | 0.011 ± 0.0014 | 0.005 ± 0.0057 | -0.0135 ± 0.016 | 0.0285 ± 0.042 | 0.0005 ± 0.033 | 0.018 ± 0.023 |
| LPS:sTNF-alpha | 0.0075 ± 0.0035 | 0.0035 ± 0.0021 | 0.0005 ± 0.0064 | -0.0015 ± 0.013 | -0.0235 ± 0.023 | -0.0195 ± 0.019 | -0.0115 ± 0.032 |
| BF4T:PAI-I | -0.0005 ± 0.013 | -0.013 ± 0.011 | 0.0075 ± 0.026 | 0.0005 ± 0.028 | 0.0025 ± 0.021 | -0.011 ± 0.018 | 0.006 ± 0.0014 |
| LPS:CD62E/E-Selectin | -0.003 ± 0.027 | -0.0175 ± 0.057 | -0.005 ± 0.031 | 0.0115 ± 0.029 | -0.0045 ± 0.015 | -0.016 ± 0.0057 | 0.0075 ± 0.011 |
| 3C:CXCL8/IL-8 | 0.0085 ± 0.011 | 0.0165 ± 0.005 | -0.005 ± 0.0028 | 0.0005 ± 0.019 | -0.004 ± 0.0014 | 0.0045 ± 0.012 | 0.023 ± 0.044 |
| BF4T:CCL26/Eotaxin-3 | -0.0075 ± 0.0021 | -0.061 ± 0.0099 | 0.015 ± 0.051 | 0.0015 ± 0.054 | -0.015 ± 0.018 | -0.0095 ± 0.026 | 0.009 ± 0.018 |
| BF4T:CCL2/MCP-1 | -0.0135 ± 0.015 | -0.0245 ± 0.066 | -0.014 ± 0.028 | 0.0175 ± 0.005 | -0.0025 ± 0.0021 | -0.018 ± 0.0014 | -0.01 ± 0.041 |
| BF4T:CXCL8/IL-8 | -0.0015 ± 0.018 | 0.011 ± 0.025 | -0.0005 ± 0.00071 | 0.008 ± 0.023 | -0.0125 ± 0.025 | -0.0155 ± 0.052 | -0.019 ± 0.031 |
| LPS:CCL2/MCP-1 | -0.008 ± 0.016 | 0.0145 ± 0.04 | 0.006 ± 0.021 | 0.017 ± 0.013 | 0.001 ± 0.023 | -0.0025 ± 0.015 | 0.0135 ± 0.013 |
| SAg:CD40 | -0.006 ± 0.021 | -0.0065 ± 0.0092 | -0.0275 ± 0.00071 | -0.017 ± 0.016 | -0.002 ± 0.0071 | -0.008 ± 0.011 | -0.015 ± 0.0042 |
| 3C:CD87/uPAR | 0.0105 ± 0.019 | 0.0225 ± 0.016 | -0.0145 ± 0.013 | -0.0075 ± 0.019 | 0.0055 ± 0.011 | -0.017 ± 0.0057 | -0.0125 ± 0.018 |
| BF4T:MMP-1 | 0.001 ± 0.035 | 0.016 ± 0.033 | -0.0155 ± 0.035 | 0.0075 ± 0.052 | 0.0005 ± 0.0064 | -0.0065 ± 0.011 | -0.005 ± 0.027 |
| BF4T:uPA | -0.011 ± 0.035 | -0.012 ± 0.033 | -0.0105 ± 0.0035 | -0.0125 ± 0.00071 | 0.0025 ± 0.016 | 0 ± 0.011 | -0.01 ± 0.031 |
| 3C:HLA-DR | -0.001 ± 0.017 | 0.0155 ± 0.025 | 0.028 ± 0.03 | 0.0205 ± 0.019 | -0.0055 ± 0.029 | -0.0155 ± 0.013 | -0.0105 ± 0.0092 |
| SAg:CD62E/E-Selectin | 0 ± 0.014 | -0.0225 ± 0.053 | -0.019 ± 0.013 | 0.003 ± 0.0099 | -0.0265 ± 0.0021 | -0.0185 ± 0.032 | -0.007 ± 0.0085 |
| BE3C:CXCL11/I-TAC | -0.004 ± 0.0057 | -0.001 ± 0.0042 | 0.003 ± 0.016 | -0.0035 ± 0.0021 | -0.004 ± 0.021 | 0.0045 ± 0.005 | 0.0005 ± 0.0035 |

| Test System | level (log10) ([1]; 6700 nM) | level (log10) ([1]; 20000 nM) | level (log10) (1-(Perfluorohexyl)octane; 6700 nM) | level (log10) (1-(Perfluorohexyl)octane; 20000 nM) | level (log10) ([2]; 6700 nM) | level (log10) ([2]; 20000 nM) | level (log10) ([2]; 60000 nM) |
| --- | --- | --- | --- | --- | --- | --- | --- |
| 3C:SRB | 0.0125 ± 0.015 | 0.0295 ± 0.03 | 0.004 ± 0.021 | -0.005 ± 0.018 | -0.0095 ± 0.00071 | -0.006 ± 0.0028 | -0.012 ± 0.0099 |
| SAg:SRB | 0.0175 ± 0.005 | 0.031 ± 0.017 | 0.0035 ± 0.0078 | -0.004 ± 0.018 | -0.0065 ± 0.011 | -0.0065 ± 0.0078 | -0.005 ± 0.016 |
| SAg:CXCL8/IL-8 | -0.0055 ± 0.019 | 0.004 ± 0.045 | -0.013 ± 0.0085 | 0.032 ± 0.041 | -0.0145 ± 0.00071 | -0.016 ± 0.011 | -0.0035 ± 0.013 |
| BT:sTNF-alpha | 0.018 ± 0.054 | 0.063 ± 0.12 | 0.0415 ± 0.028 | 0.126 ± 0.16 | 0.152 ± 0.077 | 0.0025 ± 0.098 | 0.158 ± 0.018 |
| BT:sIL-6 | 0.009 ± 0.017 | -0.0575 ± 0.042 | -0.0155 ± 0.094 | -0.006 ± 0.03 | 0.0225 ± 0.056 | 0.055 ± 0.065 | 0.0425 ± 0.076 |
| BF4T:Keratin 8/18 | -0.016 ± 0.052 | -0.0135 ± 0.0092 | 0.006 ± 0.016 | 0.0055 ± 0.0078 | 0.004 ± 0.024 | -0.006 ± 0.0042 | 0.0135 ± 0.015 |
| 4H:CD62P/P-selectin | 0.0005 ± 0.037 | -0.0185 ± 0.06 | 0.0245 ± 0.039 | -0.007 ± 0.016 | 0.0135 ± 0.042 | 0.0445 ± 0.025 | -0.003 ± 0.02 |
| BT:sIL-2 | 0.0055 ± 0.0035 | -0.0045 ± 0.019 | -0.024 ± 0.073 | 0.0635 ± 0.067 | -0.042 ± 0.13 | -0.0335 ± 0.022 | 0.0335 ± 0.0021 |
| BF4T:CD54/ICAM-1 | -0.007 ± 0.018 | -0.0345 ± 0.0064 | 0.0005 ± 0.005 | -0.0085 ± 0.023 | -0.0075 ± 0.0092 | 0.007 | -0.008 ± 0.0071 |
| BE3C:EGFR | 0.005 ± 0.014 | -0.008 ± 0.02 | -0.001 ± 0.0042 | -0.013 ± 0.0028 | 0.006 ± 0.0057 | 0.0105 ± 0.013 | -0.0015 ± 0.005 |
| 3C:Proliferation | -0.019 ± 0.0085 | -0.027 ± 0.0057 | -0.0125 ± 0.06 | -0.0035 ± 0.012 | -0.0215 ± 0.054 | -0.0175 ± 0.091 | 0.0195 ± 0.049 |
| SAg:CXCL9/MIG | -0.009 ± 0.0071 | 0.006 ± 0.0057 | -0.002 ± 0.0057 | 0.0095 ± 0.016 | 0.001 ± 0.0028 | -0.009 ± 0.0014 | 0.001 ± 0.014 |
| BE3C:HLA-DR | -0.0065 ± 0.0035 | -0.0225 ± 0.0092 | 0.0095 ± 0.036 | 0.0015 ± 0.005 | -0.0345 ± 0.035 | -0.018 ± 0.011 | -0.0225 ± 0.005 |
| BT:Secreted IgG | -0.0075 ± 0.06 | 0.0115 ± 0.074 | 0.0355 ± 0.012 | 0.04 ± 0.028 | -0.011 ± 0.024 | -0.0295 ± 0.012 | -0.0155 ± 0.005 |
| SAg:CD38 | 0.007 ± 0.03 | -0.007 ± 0.042 | 0.0015 ± 0.0078 | 0.0105 ± 0.00071 | -0.012 ± 0.024 | 0.008 ± 0.013 | 0.0015 ± 0.0035 |
| BE3C:CXCL8/IL-8 | 0.018 ± 0.11 | 0.0505 ± 0.12 | 0.0125 ± 0.052 | 0.068 ± 0.024 | -0.0085 ± 0.036 | 0.0075 ± 0.005 | -0.0095 ± 0.0092 |
| SAg:PBMC Cytotoxicity | -0.005 ± 0.045 | 0.0205 ± 0.035 | 0.023 ± 0.011 | 0.023 ± 0.017 | -0.022 ± 0.0071 | -0.014 ± 0.031 | -0.0045 ± 0.035 |
